The record followed here is PMC4501687, “Design of a Selective Substrate and Activity Based Probe for Human Neutrophil Serine Protease 4” (PLoS ONE, 2015).

The target of assay [1] is T1, NSP4 (Homo sapiens, UniProt Q6UWY2).
T1 construct: made in house
T1 sequence (Q6UWY2 32-283): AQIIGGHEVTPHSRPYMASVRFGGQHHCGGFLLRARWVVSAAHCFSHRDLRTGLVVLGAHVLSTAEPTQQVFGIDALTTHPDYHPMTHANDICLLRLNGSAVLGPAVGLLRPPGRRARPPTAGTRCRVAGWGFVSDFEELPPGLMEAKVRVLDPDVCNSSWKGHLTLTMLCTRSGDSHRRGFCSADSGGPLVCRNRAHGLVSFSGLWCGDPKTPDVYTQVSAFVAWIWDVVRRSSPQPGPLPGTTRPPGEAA
Kind of assay: SDS-PAGE / streptavidin blot labeling of purified NSP4 by probe. To be noted: 100 nM NSP4, 20 min 37°C; SDS-PAGE, nitrocellulose transfer, fluorescent streptavidin; probe tested 1–2000 nM. In kind it is binding. As to the method: 100nM of NSP4 was incubated with competing inhibitor—Ac-IVPR-CMK for 30 minutes at 37°C and then treated with different concentrations of probe—PK401 (2000nM and 1000nM) for 20 minutes at 37°C. Separately, 100nM of NSP4 was incubated with five different concentrations of probe- 2000nM, 1000nM, 100nM, 10nM, and 1 nM for 20 minutes in 37°C. As a control 100nM PK401 was incubated with assay buffer.
(§1) Samples were denatured and run in 4–12% SDS PAGE following transfer to nitrocellulose membrane. The membrane was blocked with 1.5% BSA in TBST overnight at 4°C and treated with IRDye800CW Streptavidin (dilution 1:10000 with 1.5% BSA in TBST) for 45 minutes. Then enzyme was visualized using a Li-cor fluorescence imager and Odyssey Molecular Modeling Software.
(§2) SDS-page and Western Blot […]
A standard SDS broad spectrum marker (Biorad) was used (Fig. 4A, lane 1). […]
(§3) minutes in 37° C (Fig. 4, lanes 4, 5, 6, 7, 8). […] Then enzyme was visualized using a Li-cor fluorescence imager and Odyssey Molecular Modeling Software. […]
(§4) The membrane was blocked with 1.5% BSA in TBST overnight at 4° C and treated with IRDye800CW Streptavidin (dilution 1:10000 with 1,5% BSA in TBST) for 45 minutes. Then PK401 was visualized using a Li-cor fluorescence imager and Odyssey Molecular Modeling Software.

Assay [2] deals with T2, CatG (Homo sapiens, UniProt P08311).
T2 construct: purchased Biocentrum, Krakow, Poland
T2 sequence (P08311 21-255): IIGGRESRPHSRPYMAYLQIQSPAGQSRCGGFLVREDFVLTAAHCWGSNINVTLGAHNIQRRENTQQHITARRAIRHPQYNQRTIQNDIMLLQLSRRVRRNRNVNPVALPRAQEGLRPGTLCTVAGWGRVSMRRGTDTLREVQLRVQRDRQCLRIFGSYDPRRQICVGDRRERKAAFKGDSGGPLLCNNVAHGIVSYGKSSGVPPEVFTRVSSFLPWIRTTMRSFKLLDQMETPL
The assay is described as follows: SDS-PAGE / streptavidin blot labeling of CatG by probe. The format is binding. To be noted: 100 nM active enzyme, 100 nM PK401; streptavidin blot (Fig 4B). As to the method:
as §1
(§5) The same methodology was used to visualize potential cross-reactivity of NSP’s with PK401. 100nM of each NSP was incubated with buffer or 100nM PK401, followed by SDS-page and transfer to nitrocellulose membrane. For more details see S1 Text.
as §2
(§6) A standard SDS broad spectrum marker (Biorad) was used (Fig. 4A, lane 1).
(§7) Two Eppendorf tubes with 100nM of NSP4 were incubated with Ac-IVPR-CMK for 30 minutes at 37°C and then treated with PK401 at 2000nM and 1000nM for an additional 20 minutes at 37° C (Fig. 4, lanes 2 and 3). Separately, 100nM enzyme […]
as §3, §4

In assay [3] the target is T2, CatG. The assay is described as follows: Inhibition rate constant (kobs/I), pseudo-first order, CatG. In kind it is biochemical. To be noted: selectivity NSP4 over CatG. As to the method: (§8) The active concentration of each NSP was determined by PK401 titration in 50 mM Hepes, 0.1 M NaCl, 0.1%TRITON-X100, pH 7.45 assay buffer on 96 wells Corning plates. Rfu/s values were measured for minimum 20 minutes. The excitation wavelength was 355 nm, and the emission wavelength was 460 nm, with a cutoff of 455 nm. Under pseudo-first order conditions, a fixed amount of NSP4 (2.8 nM active enzyme), PR3, NE, or CatG (100 nM active enzyme) was mixed with PK401 at different concentration ranges starting from at least 2-fold excess over NSP4 (6.6–20nM) and 7-fold excess over NE, CatG and PR3 (0.7–50μM). […] Product formation (P) proceeded at an initial velocity (V) and was inhibited over time (t) at a rate of (k a): P = V/ka*(1-e^-ka^*t)+C, where k o is defined as k obs(app) −the apparent rate of inhibition in the presence of substrate. k obs was determined separately for each probe concentration using non-linear regression analysis in GraphPadPrism software. The obtained values were plotted against probe concentration giving k obs(app)/I (apparent second order rate constant). kobs/I (absolute value of the second order rate constant) was then calculated from kobs/I = ka/I *(1+[S]/Km). […]

Assay [4] addresses T1, NSP4. Kind of assay: Inhibition rate constant (kobs/I), pseudo-first order, NSP4. The format is biochemical. As for the experimental part: as §8
For assay [5], the target named is T3, NE (Homo sapiens, UniProt P08246).
T3 construct: purchased Biocentrum, Krakow, Poland
T3 sequence (P08246 30-267): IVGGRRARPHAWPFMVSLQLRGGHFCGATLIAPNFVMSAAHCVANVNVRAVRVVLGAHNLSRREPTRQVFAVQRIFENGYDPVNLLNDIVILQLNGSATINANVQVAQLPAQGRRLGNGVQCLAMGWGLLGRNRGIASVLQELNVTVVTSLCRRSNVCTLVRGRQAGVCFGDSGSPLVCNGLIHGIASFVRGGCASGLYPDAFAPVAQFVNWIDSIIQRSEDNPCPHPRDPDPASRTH
The assay is described as follows: SDS-PAGE / streptavidin blot labeling of NE by probe. In kind it is binding. To be noted: 100 nM active enzyme, 100 nM PK401; streptavidin blot (Fig 4B). As to the method: as §1, §5, §2, §6, §7, §3, §4

The target of assay [6] is T2, CatG. Kind of assay: Fluorogenic substrate hydrolysis kinetics with CatG. In kind it is biochemical. To be noted: Table 3; assay substrate for CatG; Km above 100 μM, the concentration used in the assay; read-out: Km of the substrate used for analysis. As for the experimental part:
Kinetic parameters of selected substrates were determined in 50 mM Hepes, 0.1 M NaCl, 0.1%TRITON-X100, pH 7.45 assay buffer on 96 wells Corning plates. Measurements were performed for a minimum of 20 minutes. The excitation wavelength was 355 nm, and the emission wavelength was 460 nm, with a cutoff of 455 nm. Human NE and CatG were purchased from Biocentrum, Krakow, Poland and PR3 from Athens Research Technology, Athens, Georgia, USA. Recombinant human NSP4 was expressed and purified as previously described.
In addition to NSP4, neutrophils contain three other structurally-related serine proteases NE, PR3 and CatG [1] that are also stored in azurophilic granules. To estimate the degree of eventual cross reactivity of the optimal substrate with these three serine proteases, we measured kinetic parameters for each enzyme on PK421. […] In the case of CatG we were unable to saturate the enzyme and therefore could not calculate the individual values of kcat and Km.

In the case of “Biot-Ahx-hCha-Phe(guan)-Oic-Arg^P(OPh)2 [PK401]”, the “Probe concentration giving robust labeling of NSP4” value in assay [1] was 10 nM. Besides, the “Labeling of CatG by probe” value in assay [2] is listed as “only trace amounts of labeling”. Besides, the “Inhibition of CatG relative to NSP4 (kobs/I)” value in assay [3] is recorded as “three orders of magnitude slower”. In assay [4] (NSP4 2.8 nM active enzyme, probe 6.6–20 nM, substrate Ac-hCha-Phe(guan)-Pro-Arg-ACC above Km, 37°C, Hepes buffer pH 7.45, corrected by 1+[S]/Km), the “kobs/I (second order rate constant of inhibition)” value turned out to be 3.8e+06 M⁻¹ s⁻¹. The “Fold higher kobs/I than PK401b” value in assay [4] (NSP4, diastereoisomers compared) came to 40 times. Besides, in assay [5], the “Labeling of NE by probe” value is “only trace amounts of labeling”.

As to “Suc-Ala-Ala-Pro-Phe-AMC [assay substrate for CatG]”, the Km in assay [6] is above 100 µM.

What is called Km is the concentration of substrate that gives half-maximal velocity.
